Test: molar heat capacity at constant pressure; xn = mol fraction of the nth substance listed
Conditions: 101 kPa, Liquid, Large sample (1 g) DSC

CN1CCCC1=O [N-methylpyrrolidone] + O
molar heat capacity at constant pressure [J/K/mol]
Conditions | x1 = 0.0999 | x1 = 0.1998 | x1 = 0.2984 | x1 = 0.3979 | x1 = 0.4961 | x1 = 0.5981 | x1 = 0.6917 | x1 = 0.799 | x1 = 0.8946 | x1 = 1
303.15 K | 90 | 102 | 113 | 122 | 129 | 137 | 144 | 152 | 158 | 166
308.15 K | 90 | 103 | 114 | 123 | 131 | 138 | 146 | 153 | 160 | 167
313.15 K | 91 | 104 | 115 | 124 | 132 | 140 | 147 | 154 | 161 | 168
318.15 K | 91 | 105 | 116 | 125 | 133 | 141 | 148 | 155 | 162 | 169
323.15 K | 92 | 105 | 118 | 127 | 135 | 142 | 150 | 157 | 164 | 170
328.15 K | 92 | 106 | 119 | 128 | 136 | 144 | 151 | 158 | 165 | 172
333.15 K | 93 | 107 | 120 | 129 | 138 | 145 | 153 | 160 | 166 | 174
338.15 K | 93 | 108 | 121 | 131 | 139 | 147 | 154 | 161 | 168 | 175
343.15 K | 94 | 109 | 122 | 132 | 141 | 149 | 156 | 163 | 169 | 176
348.15 K | 95 | 110 | 123 | 133 | 142 | 150 | 157 | 164 | 170 | 177
353.15 K | 95 | 110 | 124 | 134 | 142 | 151 | 158 | 165 | 170 | 178

COCCOCCOCCOC [2,5,8,11-tetraoxadodecane] + O
molar heat capacity at constant pressure [J/K/mol]
Conditions | x1 = 0.0999 | x1 = 0.1997 | x1 = 0.2967 | x1 = 0.3977 | x1 = 0.4983 | x1 = 0.5918 | x1 = 0.6926 | x1 = 0.7941 | x1 = 0.8686 | x1 = 1
303.15 K | 109 | 141 | 171 | 198 | 224 | 250 | 275 | 300 | 328 | 359
308.15 K | 110 | 143 | 173 | 200 | 227 | 253 | 278 | 304 | 332 | 364
313.15 K | 111 | 144 | 174 | 202 | 228 | 254 | 279 | 306 | 334 | 366
318.15 K | 112 | 145 | 175 | 203 | 229 | 255 | 281 | 307 | 335 | 368
323.15 K | 112 | 146 | 176 | 204 | 231 | 256 | 282 | 309 | 337 | 370
328.15 K | 113 | 147 | 177 | 206 | 232 | 258 | 283 | 310 | 339 | 371
333.15 K | 114 | 148 | 179 | 207 | 233 | 259 | 285 | 312 | 341 | 373
338.15 K | 114 | 149 | 180 | 208 | 235 | 261 | 286 | 313 | 342 | 375
343.15 K | 115 | 150 | 181 | 210 | 237 | 263 | 289 | 316 | 345 | 379
348.15 K | 116 | 151 | 183 | 211 | 238 | 264 | 290 | 318 | 347 | 381
353.15 K | 116 | 152 | 184 | 212 | 239 | 265 | 291 | 318 | 348 | 382

— the NIST ThermoML archive (doi:10.1021/je800999s)
